# Assay results as given in patent publication US11821001B2, “Cell culture medium for eukaryotic cells” (Regeneron Pharmaceuticals, Inc., priority 2019, dated 2023).
# System: titer of VEGFR binding protein 1
# Assay: Correlation and regression of component concentration against protein titer of VEGFR binding protein 1
# Format: cell-based
# Details: regression line; for protein titer versus concentration of the component in the cell culture medium: N=70, extrapolated estimation from soy hydrolysate data, FIG. 3 / FIG. 5; for protein titer versus concentration of the component in the soy hydrolysate added to the cell culture medium: N=70, enriched medium (soy hydrolysate), FIG. 2 / FIG. 4
# Method: The impact of 5-methythioadenosine on production of a recombinant protein (VEGFR binding protein 1) was studied by investigating the protein titer (g/L) at different concentrations of 5-methythioadenosine present in the cell culture medium.
# An enriched medium (soy hydrolysate) comprising 5-methythioadenosine was added to the cell culture medium.
# Based on the correlation data obtained from studying the effect of 5-methythioadenosine concentrations in the enriched medium (soy hydrolysate) supplemented to the cell culture medium (Example 2, FIG. 2), an estimation as to the optimum concentration of 5-MTA in a cell culture was made.
# The impact of nicotinamide on a recombinant protein (VEGFR binding protein 1) titer was also studied by investigating the protein titer (g/L) at different concentrations of nicotinamide present in the cell culture medium.
# An enriched medium (soy hydrolysate) comprising nicotinamide was added to the cell culture medium at varying concentrations.
# Based on the correlation data obtained from studying the effect of nicotinamide concentration in enriched medium (soy hydrolysate) supplemented to the cell culture medium (Example 4, FIG. 4), an estimation as to the optimum concentration of nicotinamide in a cell culture was made.
Structure (SMILES),protein titer versus concentration of the component in the cell culture medium,protein titer versus concentration of the component in the soy hydrolysate added to the cell culture medium
"NC(=O)c1cccnc1 [Nicotinamide, 3-Pyridinecarboxamide]",titer can vary linearly,titer varied linearly
"CSC[C@H]1O[C@@H](n2cnc3c(N)ncnc32)[C@H](O)[C@@H]1O [5-methylthioadenosine (MTA), 5-Deoxy-5′-methylthioadenosine]",titer can vary linearly,titer varied linearly
